Results from patent publication US10500197B2, “Use of oligopyridylamides to inhibit mutant p53 amyloid formation and restore its tumor suppressor function” (New York University, priority 2017, dated 2019).
Entries after “also recorded” stand apart in the source; their conditions may differ. Where no end group is shown, it is not given here.

Tests used:
R248W mutant p53 peptide = R248W mutant p53 peptide (Homo sapiens, UniProt P04637, R248W); assay: Thioflavin T (ThT) assay, inhibition of R248W peptide aggregation; assay type: biochemical; settings: 1:1 ratio to R248W peptide, 37° C., 10 hours
Procedure: (§1) This fluorescence can be monitored overtime to estimate the increase in beta-sheet structure of incubated peptides, indicating amyloid formation. […] 50 μM ThT was incubated at 37° C. with varying concentrations of peptides and inhibitors to estimate both the aggregation propensity of mutant peptides and the abrogation of aggregation brought about by inhibitor treatment. All samples were sonicated, including the ThT solution, prior to each addition of peptides to ensure the obtainment of clear sigmoidal curves. Fluorescence in transparent-bottom 96-well sample plates was monitored by the cell plate reader Synergy H1 (BioTek).
To test the inhibition efficacy of these peptides, they were subjected to a ThT assay whereby a fixed concentration of R248W was treated with varying concentrations of the respective inhibitor peptide in the presence of ThT dye and buffer. […] It is hypothesized that this effect is due to the relative hydrophobicity of the PAS sequence (FFLIPKG) (FIG. 4B).
10 compounds based on the oligopyridylamide molecular scaffolds have been tested on mutant p53 aggregation models. A ThT assay was used to test the inhibition capability of each compound at a 1:1 ratio to the R248W mutant peptide.

[1] = tested on: MCF-7 cells (wild-type p53); assay: MTS cell viability in MCF-7 cells; assay type: cell-based; settings: 5 and 10 μM, 24 hours, serum-free media
Procedure: (§2) MTS assays were performed with Promega CellTiter One MTS solution according to protocol. MIA PaCa-2 cells were seeded at 2,000 cells/well, MCF-7 at 4,000 cells/well, COS-7 at 5,000 cells/well and HeLa at 3,000 cells/well. These values were individually optimized for the assay prior to experimentation. All cells were incubated for 24 hours to allow proper adherence to the well. On treatment day, wells were washed with warm PBS and media was replaced with a serum-free version. If treatment peptides were purified from crude form, they were also filtered using a 0.2 µm filter before introduction to cells. On MTS reading day, media was changed again (serum-free) and 20 μL of MTS was added to each 100 μL well. Cells were incubated at 37° C. for 2 hours before reading absorbance at 490 nm using Synergy H1 (BioTek) equipped with Gen5 software. Background absorbance from control wells was quantified and subtracted from obtained experimental absorbance values.
(§3) It has been shown that the ADH compounds have no toxic effect on N2a cells, which carry wild-type p53. Their effect on other wild-type p53 cell lines: MCF-7 and COS-7 was further investigated. Cells were incubated with ADH compounds 17, 27, 40, 41 and 46 for 24 hours at 5 and 10 μM in serum-free media before determining cell viability via MTS (FIG. 2).

[2] = tested on: COS-7 cells (wild-type p53); assay: MTS cell viability in COS-7 cells; assay type: cell-based; settings: 5 and 10 μM, 24 hours, serum-free media
Procedure: as §2, §3

HeLa cells = assay: MTS cell viability in HeLa cells; assay type: cell-based; settings: 5 or 10 μM, 24 hours, serum-free media
Procedure: as §2
It has been hypothesized that the ADH compounds may bind to wild-type p53 in a manner that preserves its main function, yet disrupts other protein-protein interactions in the cellular environment. HeLa cells are known to have very low p53 expression levels, which is attributed to the expression of the HPV-E6 protein. E6 proteins target p53 for proteasomal degradation via the ubiquitin pathway by binding to p53's core domain (residues 94-292) and C-terminus. Because it has been hypothesized that the effective ADH compounds (40, 41, and 46) target the p53 DNA-binding domain located in its core region, the compounds may prevent E6 binding, leading to p53 accumulation and eventually apoptosis. […] Since ReACp53 is a sequence-specific peptide that targets the p53 DNA-binding domain, it may also prevent E6 binding through a similar mechanism.

[3] = tested on: MIA PaCa-2 cells (R248W p53 mutant); assay: MTS cell viability assay in MIA PaCa-2 cells; assay type: cell-based; settings: 5 and 10 μM, 24 and 48 hours, serum-free media
Procedure: MIA PaCa-2 (CRL-1420) cells, which contain the R248W p53 contact mutant, were obtained from ATCC and cultured in ATCC-formulated Dulbecco's Modified Eagle's Medium supplemented with 10% fetal bovine serum (FBS), 2.5% horse serum, 4% 200 mM L-glutamine and 1% penicillin/streptomycin. A separate stock of serum-free medium was kept for cell viability assays. Cells were split at a 1:3 ratio 2-3 times a week and maintained at 80% confluence and >85% viability. Viability was regularly measured through Trypan Blue dilution correction during cell counting. Cell cultures were stored at 37° C. in T75 coated flasks and kept under 5% CO2.
MTS assays were performed with Promega CellTiter One MTS solution according to protocol. MIA PaCa-2 Cells were seeded at 2,000 cells/well and were incubated for 24 hours to allow proper adherence to the well. On treatment day, wells were washed with warm PBS and media was replaced with a serum-free version. If treatment peptides were purified from crude form, they were also filtered using a 0.2 µm filter before introduction to cells. On MTS reading day, media was changed again (serum-free) and 20 μL of MTS was added to each 100 μL well. Cells were incubated at 37° C. for 2 hours before reading absorbance at 490 nm using Synergy H1 (BioTek) equipped with Gen5 software.
as §2
The two classes of designed peptide inhibitors have been introduced to a cancer cell-line that harbors the R248W p53 mutant, MIA PaCa-29. It has been hypothesized that upon co-localization of the inhibitors with mutant p53, mutant p53 aggregates will be abrogated, resulting in the release of wild-type p53 from cellular inclusions and, eventually, the induction of apoptosis. The 4 designed peptides were introduced to MIA PaCa-2 cells at 5 and 10 μM for 24 and 48 hour incubation periods. MTS assay was used to assess cell viability after treatment, whereby the bio-reduction of the MTS tetrazolium compound results in detectable color change that is proportional to the number of viable cells left in a sample (see Example 1).
MIA PaCa-2 cells were incubated with ADH compounds 17, 27, 31, 37, 39, 40, 41, 45, 46, and 52 (5 and 10 μM) for 24 and 48 hours. Cell viability was determined using the MTS assay.

[4] = target: R248W mutant p53 peptide aggregates (Homo sapiens, UniProt P04637, R248W); assay: Multi-step ThT assay, abrogation of pre-formed R248W aggregates; assay type: biochemical; settings: 50 μM R248W incubated 35 minutes at 37° C., then equimolar ADH compound
Procedure: as §1
Accordingly, a multi-step ThT assay was designed that would evaluate the ability of an inhibitor to abrogate aggregation at different stages of amyloid formation. Based on the sigmoidal curve produced in ThT assays of the R248W peptide, 3 time points were selected to introduce the inhibitor to mutant p53 aggregates. The first would occur at 0 mins, where no R248W aggregates would have been previously formed. The second time point would be approximately 30 mins after aggregation begins, during the exponential increase in fluorescence of the R248W ThT sigmoidal curve. The last time point would be during the plateau phase of the curve at approximately 5 hours after initiation of the assay, whereby aggregates reach an equilibrium phase and stabilize in solution.
In order to target p53 aggregation in the cellular environment, the ADH compounds according to the invention would need to bind and abrogate pre-formed p53 aggregates, as well as prevent additional aggregation. Inhibition of pre-formed aggregates would be a crucial feature of therapeutics that successfully target mutant p53 aggregation in cancer. Using the multi-step thioflavin T assay, where the inhibitor is added to R248W at either elongation or the plateau phases of amyloid formation, 50 μM of the R248W peptide was incubated at 37° C. for 35 minutes before adding an equimolar ratio of the ADH compound (FIG. 1).

Compound | inhibition of R248W mutant p53 aggregation by ADH compounds (ThT fluorescence) (R248W mutant p53 peptide) | toxicity in MCF-7 cells (MTS) [1] | toxicity in COS-7 cells (MTS) [2] | toxicity in HeLa cells (MTS) (HeLa cells) | effect of ADH compounds on MIA PaCa-2 cell viability (MTS) [3] | abrogation of R248W aggregates at the elongation phase [4] | cytotoxicity of peptides in MIA PaCa-2 cells (MTS) [3]
COC(=O)c1ccc(NC(=O)c2ccc(NC(=O)c3ccc([N+](=O)[O-])c(OC(C)C)n3)c(OCc3ccccc3)n2)c(OCCCN)n1 [ADH-39] | inhibit mutant p53 aggregation with varying levels of effectiveness | – | – | – | – | – | –
COC(=O)c1ccc(NC(=O)c2ccc(NC(=O)c3ccc([N+](=O)[O-])c(OCc4ccccc4)n3)c(OCC(=O)O)n2)c(OCC(=O)O)n1 [ADH-27] | – | No significant toxicity; also recorded: do not induce significant toxicity | No significant toxicity; also recorded: do not induce significant toxicity | – | – | – | –
CCCCOc1nc(C(=O)Nc2ccc(C(=O)Nc3ccc(C(=O)OC)nc3OCCCN)nc2OCCCN)ccc1[N+](=O)[O-] [ADH-40] | inhibit mutant p53 aggregation with varying levels of effectiveness | No significant toxicity; also recorded: do not induce significant toxicity | No significant toxicity; also recorded: do not induce significant toxicity | Significant toxicity; also recorded: significantly toxic | highly significant toxicity; also recorded: extremely significant effect on cell viability | abrogate aggregation at the elongation phase; also recorded: able to target and abrogate aggregates at the elongation phase | –
COC(=O)c1ccc(NC(=O)c2ccc(NC(=O)c3ccc([N+](=O)[O-])c(OCCCN)n3)c(OCc3ccccc3)n2)c(OCCCN)n1 [ADH-37] | inhibit mutant p53 aggregation with varying levels of effectiveness | – | – | – | – | – | –
COC(=O)c1ccc(NC(=O)c2ccc(NC(=O)c3ccc([N+](=O)[O-])c(OCC(C)C)n3)c(OCCCN)n2)c(OCCCN)n1 [ADH-46] | inhibit mutant p53 aggregation with varying levels of effectiveness | No significant toxicity; also recorded: do not induce significant toxicity | No significant toxicity; also recorded: do not induce significant toxicity | Significant toxicity; also recorded: significantly toxic | highly significant toxicity; also recorded: extremely significant effect on cell viability | abrogate aggregation at the elongation phase; also recorded: able to target and abrogate aggregates at the elongation phase | –
COC(=O)c1ccc(NC(=O)c2ccc(NC(=O)c3ccc(NC(=O)c4ccc([N+](=O)[O-])c(OCC(C)C)n4)c(OCc4ccccc4)n3)c(OCC(=O)O)n2)c(OCC(=O)O)n1 [ADH-31] | inhibit mutant p53 aggregation with varying levels of effectiveness | – | – | – | – | – | –
COC(=O)c1ccc(NC(=O)c2ccc(NC(=O)c3ccc([N+](=O)[O-])c(OCC(=O)O)n3)c(OCc3ccccc3)n2)c(OCC(=O)O)n1 [ADH-17] | – | No significant toxicity; also recorded: do not induce significant toxicity | No significant toxicity; also recorded: do not induce significant toxicity | – | non-toxic effects | – | –
ReACp53: recently developed peptide that targets p53 aggregation, oligoarginine tag, (image prefix) RPILTRITLE (also: oligoarginine tag) [reference compound] | – | No significant toxicity; also recorded: does not appear to induce toxicity | No significant toxicity; also recorded: does not appear to induce toxicity | induce significant toxicity; also recorded: significantly toxic | – | – | induce cell death; also recorded: significantly cytotoxic
